Reference: ChEMBL document CHEMBL1201862, “PubChem BioAssay data set” (2004)
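How tested: cells in 96-well plates exposed to compound for 48 hours at five concentrations. GI50 marks 50% less growth.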 The source made the active and inactive calls. No stated cut-off is given here; in the data, active = GI50 up to about 1.1 µM and inactive = higher.

What was measured:
Test in all cases: growth of human tumour cells (NCI), 48 h
[1] = test system: NCI-H226
[2] = test system: SNB-19
[3] = test system: SF-295
[4] = test system: HCC 2998
[5] = test system: HL-60
[6] = test system: A498
[7] = test system: HT-29
[8] = test system: RXF 393
[9] = test system: IGROV-1
[10] = test system: A549
[11] = test system: SK-MEL-5
[12] = test system: HCT-15
[13] = test system: NCI-H23
[14] = test system: UO-31
[15] = test system: HCT-116
[16] = test system: K562
[17] = test system: SN12C
[18] = test system: SR
[19] = test system: SF-539

Compound	GI50 [1]	GI50 [2]	GI50 [3]	GI50 [4]	GI50 [5]	GI50 [6]	GI50 [7]	GI50 [8]	GI50 [9]	GI50 [10]	GI50 [11]	GI50 [12] [µM]	GI50 [13]	GI50 [14]	GI50 [15]	GI50 [16]	GI50 [17]	GI50 [18]	GI50 [19]
O=P1(C(O)/C=C/c2ccccc2)N(Cc2ccccc2)[C@@H]2CCCC[C@H]2N1Cc1ccccc1 (some centres undefined)	4.51 µM (inactive)	6.22 µM (inactive)	4.42 µM (inactive)	3.9 µM (inactive)	2.71 µM (inactive)	3.02 µM (inactive)	3.67 µM (inactive)	7.29 µM (inactive)	3.41 µM (inactive)	4.62 µM (inactive)	4.58 µM (inactive)	6.14	4.26 µM (inactive)	4.55 µM (inactive)	3.54 µM (inactive)	3.74 µM (inactive)	3.32 µM (inactive)		
CCOC(=O)C1=C(c2ccccc2)N(C)c2ccccc2S1	21.7 µM (inactive)	69.5 µM (inactive)	35.8 µM (inactive)		37.4 µM (inactive)		17.4 µM (inactive)		32.4 µM (inactive)	35.6 µM (inactive)	16.1 µM (inactive)	14.6	20.1 µM (inactive)	22.4 µM (inactive)	25.2 µM (inactive)	36.8 µM (inactive)	23.9 µM (inactive)	31.6 µM (inactive)	37.2 µM (inactive)
O=C(O)c1cccc(CN2CCCCC2)c1	> 100 µM (inactive)	> 100 µM (inactive)	> 100 µM (inactive)	> 100 µM (inactive)		> 100 µM (inactive)	> 100 µM (inactive)	> 100 µM (inactive)	> 100 µM (inactive)	> 100 µM (inactive)	> 100 µM (inactive)	> 100	> 100 µM (inactive)	> 100 µM (inactive)	> 100 µM (inactive)	> 100 µM (inactive)	> 100 µM (inactive)		
CC(C)(Br)C(Br)CCC1(C2CO2)CO1 (centres undefined)	> 5 µM (inactive)	> 5 µM (inactive)	> 5 µM (inactive)	> 5 µM (inactive)		> 5 µM (inactive)	> 5 µM (inactive)	> 5 µM (inactive)	> 5 µM (inactive)	> 5 µM (inactive)	> 5 µM (inactive)	> 5	> 5 µM (inactive)	> 5 µM (inactive)	> 5 µM (inactive)	> 5 µM (inactive)	> 5 µM (inactive)		> 5 µM (inactive)
O=C1C=CC(=O)c2c(O)nc(CBr)nc21			68.9 µM (inactive)	> 100 µM (inactive)	14.9 µM (inactive)	82.6 µM (inactive)	60.5 µM (inactive)	> 100 µM (inactive)	> 100 µM (inactive)	> 100 µM (inactive)	44.9 µM (inactive)	> 100	80.5 µM (inactive)	> 100 µM (inactive)	56.8 µM (inactive)	94.4 µM (inactive)	38.5 µM (inactive)		> 100 µM (inactive)
COc1c(C(=O)CC2c3c(cc4oc(C)cc(=O)c4c3OC)OC(=N)C2c2nc3ccccc3[nH]2)c(O)c(OC)c2occc12 (centres undefined)	> 100 µM (inactive)	> 100 µM (inactive)	> 100 µM (inactive)	> 100 µM (inactive)	> 100 µM (inactive)	> 100 µM (inactive)	> 100 µM (inactive)	> 100 µM (inactive)	> 100 µM (inactive)	> 100 µM (inactive)	> 100 µM (inactive)	> 100	> 100 µM (inactive)	> 100 µM (inactive)	> 100 µM (inactive)	> 100 µM (inactive)	> 100 µM (inactive)		
CC1/C(=N/O)CC(c2ccccc2)N(N=O)C1c1ccccc1 (centres undefined)	> 100 µM (inactive)	> 100 µM (inactive)	> 100 µM (inactive)	> 100 µM (inactive)	> 100 µM (inactive)		> 100 µM (inactive)	> 100 µM (inactive)	> 100 µM (inactive)	> 100 µM (inactive)	> 100 µM (inactive)	> 100	> 100 µM (inactive)	> 100 µM (inactive)	> 100 µM (inactive)	> 100 µM (inactive)	> 100 µM (inactive)		> 100 µM (inactive)
COc1c2nc(CCl)n(C)c(=O)c2c(OC)c2c(=O)n(C)c(CCl)nc12	3.06 µM (inactive)	2.11 µM (inactive)	1.84 µM (inactive)	1.34 µM (inactive)	0.653 µM (active)	2.33 µM (inactive)	1.3 µM (inactive)	2.07 µM (inactive)	1.94 µM (inactive)	3.08 µM (inactive)	1.92 µM (inactive)	1.48	1.62 µM (inactive)	1.24 µM (inactive)	1.11 µM (active)	0.689 µM (active)	1.69 µM (inactive)		3.44 µM (inactive)
